The subject of one assay is SIRT1. Kind of assay: SIRT1 activity (PGC-1α acetylation) and SIRT1 protein in C2C12 myotubes. In kind it is cell-based. The method, then: Immunoprecipitation, SDS-PAGE, Western Blotting. Cells were lysed in lysis buffer (50 mM Tris, […], EDTA 1 mM, NP40 1%, nicotinamide 5 mM, Na-butyrate 1 in M, protease inhibitors pH7.4). Proteins were separated by SDS-PAGE and transferred onto nitrocellulose membranes. The origin of the primary and secondary antibodies used can be found as supplemental experimental procedures. Reactions were developed by enhanced chemiluminescence (Amersham, Little Chalfont, UK), PGC-1α, FOXO1 and Ndufa9 acetylation levels were analyzed by immunoprecipitation from cellular or nuclear lysates of tissues with anti-PGC-1α (Millipore), anti-FOXO1 (Cell Signaling, Danvers, Mass., USA) and anti-Ndufa9 (Abcam) antibody followed by Western blot using an acetyl-lysine antibody (Cell Signaling) that was normalized to total PGC-1a/FOXO1/Ndufa9 levels (Lagouge et al., 2006; Rodgers et al., 2005). In HEK293T cells HA-tagged PGC-1α was overexpressed and was immunoprecipitated using an anti-HA. In C2C12 myotubes, FLAG-HA tagged PGC-1α was introduced through adenoviral delivery 2 days before treatments, then IP was performed using anti-FLAG antibody and samples were processed as described. All blots were quantified by densitometry using ImageJ software. Poly(ADP-Ribose) detection was performed as previously described with slight modifications (Bai et al., PARP-1 inhibition increases mitochondrial metabolism through SIRT1 activation. Cell Metab 13, 461-468. (2011)) Briefly, PAR was detected by using a monoclonal anti-PAR antibody (Alexis, Lausanne Switzerland) by Western blotting of total protein lysates, using either […] of total worm protein lysates, […] of liver protein lysate or 200 g of muscle total protein extracts. PGC-1 acetylation was determined using PGC-1 immunoprecipitates from 2 mg of protein extracts, as described in Canto et al. (Canto et al., AMPK regulates energy expenditure by modulating NAD+ metabolism and SIRT1 activity. Nature 458, 1056 (2009)).

A further assay has as its system C2C12 myotubes. Kind of assay: Intracellular NAD+ content in C2C12 myotubes treated with PARP inhibitors. In kind it is cell-based. Also noted: intracellular NAD+ over time / H2O2-induced NAD+ depletion: dose or concentration left out as unconfirmed. The method, then:
Cell Culture, Transfection, Adenoviral Infection and Mitochondrial Characterization. HEK293T, MEF and C2C12 cells were cultured in DMEM (4.5 g/l glucose, 10% FCS). PARP-1^+/+ and PARP-1^−/− MEFs were prepared as described in (Menissier-de Murcia et al., 1997). SIRT1 and MEFs were kindly provided by Fred Alt (Chea et al., 2005). SIRT3 MER were established according to standard techniques from conditional SERT3^−/− mice. (Picard, F., Gehin, M., Annicotte, J., Rocchi, S., Champy, M. F., O'Malley, B. W., Chambon, P., and Auwerx, J. (2002). SRC-1 and TIF2 control energy balance between white and brown adipose tissues. Cell 111, 931-941.) Deletion of the SIRT3 gene was induced via infection with adenovirus encoding for the Cre recombinase. HEK293T cells were transfected using JetPei reagent (Polyplus Transfections, Illkirch, France) according to the manufacturer's instructions. C2C12 cells were differentiated in DMEM (4.5 g/L glucose, 2% horse serum) after reaching confluency for 2 days, followed by 2 days of PJ34 treatment (10 μM). PARP-1 shRNA constructs were described in (Shah et al., 2005). Human PARP-1 and siRNAs were obtained from Dharmacon (Thermo Scientific). The adenovirus encoding for FLAG-HA-PGC-1α, control and SIRT1 shRNAs were a kind gift from Pere Puigserver and were used (MOI=100) in C2C12 myotubes as described (Canto et al., 2009). Mitochondrial charge determination was performed as described (Bai et al., 2001) and DNA strand breaks were quantified by TUNEL assays according to the manufacturer's instructions (Millipore).
NAD^+ NAM Determination. NAD^+ levels in cultured cells were determined using a commercial kit (Enzychrom™, BioAssays Systems, CA). For tissue samples NAD^+ and NAM levels were determined as described in (Sauve et al., 2005). In brief, to a weighed aliquot of frozen pulverized tissue we added as standards, ^18O-NAD^+ (typically 2.00 nmol) and ^18O-NAM (typically 2.00 nmol). 70 L of ice-cold 7% perchloric acid was then added and the sample was vortexed and sonicated three times, then centrifuged. Clear supernatant was removed and neutralized by additions of 3 M NaOH and 1 M phosphate buffer (pH=9), then centrifuged. Clear supernatant was injected onto HPLC C-18 column with 20 mM ammonium acetate eluent to separate NAD^+ and NAM from other cellular components, NAD^+ and NAM peaks (260 nm absorbance) were collected. Collections were lyophilized to dryness and subjected to MALDI-TOF analysis. For NAD^+ measurement, ratio of intensities for m/z=664 and 666 peaks, corresponding to ^16O- and ^18O-NAD^+ isotopomers, was multiplied by 2.00 nmol and then divided by tissue weight to determine NAD+ concentration in the sample. For NAM the ratio of intensities for m/z=123 and 125 peaks, corresponding to ^16O- and ^18O-NAM isotopomers, was multiplied by 2.00 nmol and then divided by tissue weight to determine NAM concentration in the sample. Corrections were applied for isotopic abundance. Other NAD metabolites were determined as previously described (Yang and Sauve, Synthesis of nictotinamide riboside and derivatives: effective agents for increasing nictinomide adenine dinucleotide concentrations in mammalian cells. J Med Chem 50, 6458-6461 (2006)).

A further assay deals with C. elegans. Kind of assay: Quantitative RT-PCR in worms. In kind it is in vivo. How it is done:
mRNA and mtDNA Analysis. Total RNA was prepared using TRIzol (Invitrogen) according to the manufacturer's instructions. RNA was treated with DNase, and 2 μg of RNA was used for reverse transcription (RT). cDNA was purified on QIAquick PCR cleanup columns (Qiagen, Valencia, Calif., USA). 50× diluted cDNA was used for RT-quantitative PCR (RT-VCR) VCR) reactions (Bai et al., 2007). The RT-qPCR reactions were performed using the Light-Cycler system (Roche Applied Science) and a qPCR Supermix (Qiagen) with the primers for mice summarized in Table 1 and 4, and with the primers for worms summarized on Table 7. mtDNA quantification was performed as described (Lagouge et al., 2006) with the primers indicated in Table 2 and 5.

The text below walks through data of US10709724B2, “Methods of treating mitochondrial dysfunction” (Ecole Polytechnique Federale de Lausanne (EPFL), priority 2011, dated 2020).

`CN(C)CC(=O)Nc1ccc2[nH]c(=O)c3ccccc3c2c1` [PJ34]: in the assay on SIRT1 (24 hrs), the SIRT1 protein levels result is given as “did not change SIRT1 protein levels”. The “PGC-1α acetylation (SIRT1 activation)” value in the assay with SIRT1 (24 hrs, dose-dependent (FIG. 6F)) is recorded as “deacetylation of PGC-1α”. In addition, in the assay on SIRT1 (H2O2 500 μM, 6 hrs, PJ34 1 μM), the “SIRT1 function (PGC-1α acetylation) during H2O2 treatment” value was “enhanced SIRT1 function” and the “SIRT1 protein levels during H2O2 treatment” value is reported as “SIRT1 protein levels did not change”. The “intracellular NAD+ at 24 hrs, dose dependence” value in the assay on C2C12 myotubes (24 hrs (FIG. 6F)) is recorded as “dose dependent manner”. For the same compound, the “intracellular NAD+ content” value in the assay with C2C12 myotubes (24 hrs, 1 mM (FIG. 13B)) was “leads to increased intracellular content”. For the same compound, in the assay on C2C12 myotubes (H2O2 500 μM, 6 hrs, PJ34 1 μM), the “intracellular NAD+ during H2O2 treatment” value is reported as “prevented the decrease in intracellular NAD^+”. The “H2O2-induced NAD+ depletion” value with C2C12 myotubes (PJ34 24 hrs, H2O2 1 hr (FIG. 13B)) was “global inhibition of PARP activity with PJ34 did”. For the same compound, in the assay on C2C12 myotubes (PJ34 for the times indicated (FIG. 6D)), the “intracellular NAD+ over time” value is “gradual increase in NAD^+, becoming significant 24 hrs after the initiation of the treatment”.

Take `NC(=O)c1ccc[n+]([C@@H]2O[C@H](CO)[C@@H](O)[C@H]2O)c1` [NR, nicotinamide riboside]: the “expression of genes of mitochondrial oxidative metabolism (cts-1, cox-4)” value in the assay with C. elegans (day 3 of adulthood) is on record as “trend for increased cts-1 expression”. Moreover, in the assay with C. elegans (in vivo), the daf-16 expression entry was “without affecting daf-16 mRNA levels” and the sod-3 expression result is reported as “significantly higher sod-3 expression”.
